Measured values published in ChEMBL document CHEMBL3885881, “DrugMatrix”.

Species on record: Rattus norvegicus
Assay: DrugMatrix - Regimen: Daily Repeat
Type: toxicity, organism-based, Sprague-Dawley
Design: regimen Daily Repeat, gender Male, age 6-8 weeks
Conditions: in vivo, po, route oral GAVAGE, vehicle .5 % CMC; for ABSOLUTE BASOPHIL / ABSOLUTE EOSINOPHIL / ABSOLUTE LYMPHOCYTE / ABSOLUTE MONOCYTE / ABSOLUTE SEGMENTED NEUTROPHIL / BASOPHIL / EOSINOPHIL / ERYTHROCYTE COUNT / HEMATOCRIT / HEMOGLOBIN / LEUKOCYTE COUNT / LYMPHOCYTE / MEAN CORPUSCULAR HEMOGLOBIN / MEAN CORPUSCULAR HEMOGLOBIN CONCENTRATION / MEAN CORPUSCULAR VOLUME / MONOCYTE / NEUTROPHIL / NUCLEATED RED BLOOD CELLS / PLATELET COUNT: tissue Blood; for ALANINE AMINOTRANSFERASE / ALBUMIN / ALKALINE PHOSPHATASE / ASPARTATE AMINOTRANSFERASE / BLOOD UREA NITROGEN / CARBON DIOXIDE / CHLORIDE / CHOLESTEROL / CREATINE PHOSPHOKINASE / CREATININE / GLUCOSE / LACTATE DEHYDROGENASE / LIPASE / PHOSPHORUS / POTASSIUM / SODIUM / TOTAL BILIRUBIN / TOTAL PROTEIN / URIC ACID: tissue Plasma
[1] = 0 mg/kg, 72 h, dose level Control, time 3 day
[2] = 0 mg/kg, 120 h, dose level Control, time 5 day
[3] = 59 mg/kg, 72 h, dose level Low, time 3 day
[4] = 59 mg/kg, 120 h, dose level Low, time 5 day

In the case of `Cc1c(-c2ccccc2)oc2c(C(=O)OCCN3CCCCC3)cccc2c1=O` [FLAVOXATE], the “ABSOLUTE BASOPHIL” value [1] is reported as 0 CELLS/uL, the “ABSOLUTE EOSINOPHIL” value [1] is reported as 32.5 CELLS/uL and the “ABSOLUTE LYMPHOCYTE” value [1] is reported as 13494.17 CELLS/uL. For the same compound, the “ABSOLUTE MONOCYTE” value [1] was 474 CELLS/uL, the “ABSOLUTE SEGMENTED NEUTROPHIL” value [1] was 1932.67 CELLS/uL and the BASOPHIL [1] was 0%. The EOSINOPHIL [1] was 0.17%, the “ERYTHROCYTE COUNT” value [1] was 5.45 x10E6/uL and the HEMATOCRIT [1] was 34.32%. The HEMOGLOBIN [1] was 13.82 G/DL, the “LEUKOCYTE COUNT” value [1] was 15.93 x10E3/uL and the LYMPHOCYTE [1] was 84.83%. The “MEAN CORPUSCULAR HEMOGLOBIN” value [1] was 25.38 pg, the “MEAN CORPUSCULAR HEMOGLOBIN CONCENTRATION” value [1] was 40.27 G/DL and the “MEAN CORPUSCULAR VOLUME” value [1] was 63.05 fL. For the same compound, the MONOCYTE [1] was 3%, the NEUTROPHIL [1] was 12% and the “NUCLEATED RED BLOOD CELLS” value [1] was 0.67 /100WBC. For the same compound, the “PLATELET COUNT” value [1] was 1188.5 x10E3/uL, the “ALANINE AMINOTRANSFERASE” value [1] was 54.83 u/L and the ALBUMIN [1] was 4.22 G/DL. For the same compound, the “ALKALINE PHOSPHATASE” value [1] was 427.67 u/L, the “ASPARTATE AMINOTRANSFERASE” value [1] was 86.5 u/L and the “BLOOD UREA NITROGEN” value [1] was 15.33 mg/dL. For the same compound, the “CARBON DIOXIDE” value [1] was 24.83 mmol/L, the CHLORIDE [1] was 102.33 MEQ/L and the CHOLESTEROL [1] was 71.67 mg/dL. The “CREATINE PHOSPHOKINASE” value [1] was 442.5 u/L, the CREATININE [1] was 0.19 mg/dL and the GLUCOSE [1] was 160.67 mg/dL. The “LACTATE DEHYDROGENASE” value [1] was 236.5 u/L, the LIPASE [1] was 9 u/L and the PHOSPHORUS [1] was 11.97 mg/dL. For the same compound, the POTASSIUM [1] was 6.2 MEQ/L, the SODIUM [1] was 142.85 MEQ/L and the “TOTAL BILIRUBIN” value [1] was 0.2 mg/dL. For the same compound, the “TOTAL PROTEIN” value [1] was 5.8 G/DL, the “URIC ACID” value [1] was 1.3 mg/dL and the “ABSOLUTE BASOPHIL” value [2] was 0 CELLS/uL. For the same compound, the “ABSOLUTE EOSINOPHIL” value [2] was 114.5 CELLS/uL, the “ABSOLUTE LYMPHOCYTE” value [2] was 14614 CELLS/uL and the “ABSOLUTE MONOCYTE” value [2] was 173 CELLS/uL. For the same compound, the “ABSOLUTE SEGMENTED NEUTROPHIL” value [2] was 1048.5 CELLS/uL, the BASOPHIL [2] was 0% and the EOSINOPHIL [2] was 0.67%. The “ERYTHROCYTE COUNT” value [2] was 5.66 x10E6/uL, the HEMATOCRIT [2] was 35.52% and the HEMOGLOBIN [2] was 14.27 G/DL. For the same compound, the “LEUKOCYTE COUNT” value [2] was 15.95 x10E3/uL, the LYMPHOCYTE [2] was 91.33% and the “MEAN CORPUSCULAR HEMOGLOBIN” value [2] was 25.23 pg. For the same compound, the “MEAN CORPUSCULAR HEMOGLOBIN CONCENTRATION” value [2] was 40.2 G/DL, the “MEAN CORPUSCULAR VOLUME” value [2] was 62.7 fL and the MONOCYTE [2] was 1.17%. The NEUTROPHIL [2] was 6.83%, the “NUCLEATED RED BLOOD CELLS” value [2] was 0.33 /100WBC and the “PLATELET COUNT” value [2] was 1229 x10E3/uL. For the same compound, the “ALANINE AMINOTRANSFERASE” value [2] was 58.67 u/L, the ALBUMIN [2] was 4.32 G/DL and the “ALKALINE PHOSPHATASE” value [2] was 382.5 u/L. For the same compound, the “ASPARTATE AMINOTRANSFERASE” value [2] was 81.67 u/L, the “BLOOD UREA NITROGEN” value [2] was 17.67 mg/dL and the “CARBON DIOXIDE” value [2] was 27.17 mmol/L. The CHLORIDE [2] was 102.33 MEQ/L, the CHOLESTEROL [2] was 63.67 mg/dL and the “CREATINE PHOSPHOKINASE” value [2] was 227.67 u/L. For the same compound, the CREATININE [2] was 0.23 mg/dL, the GLUCOSE [2] was 155.33 mg/dL and the “LACTATE DEHYDROGENASE” value [2] was 146.5 u/L. The LIPASE [2] was 10.67 u/L, the PHOSPHORUS [2] was 11.93 mg/dL and the POTASSIUM [2] was 6.85 MEQ/L. For the same compound, the SODIUM [2] was 143.95 MEQ/L, the “TOTAL BILIRUBIN” value [2] was 0.18 mg/dL and the “TOTAL PROTEIN” value [2] was 6.02 G/DL. The “URIC ACID” value [2] was 1.63 mg/dL, the “ABSOLUTE BASOPHIL” value [3] was 0 CELLS/uL and the “ABSOLUTE EOSINOPHIL” value [3] was 0 CELLS/uL. The “ABSOLUTE LYMPHOCYTE” value [3] was 10292.33 CELLS/uL, the “ABSOLUTE MONOCYTE” value [3] was 303.67 CELLS/uL and the “ABSOLUTE SEGMENTED NEUTROPHIL” value [3] was 1637.33 CELLS/uL. The BASOPHIL [3] was 0%, the EOSINOPHIL [3] was 0% and the “ERYTHROCYTE COUNT” value [3] was 5.31 x10E6/uL. The HEMATOCRIT [3] was 32.77%, the HEMOGLOBIN [3] was 12.9 G/DL and the “LEUKOCYTE COUNT” value [3] was 12.23 x10E3/uL. For the same compound, the LYMPHOCYTE [3] was 84%, the “MEAN CORPUSCULAR HEMOGLOBIN” value [3] was 24.3 pg and the “MEAN CORPUSCULAR HEMOGLOBIN CONCENTRATION” value [3] was 39.4 G/DL. The “MEAN CORPUSCULAR VOLUME” value [3] was 61.7 fL, the MONOCYTE [3] was 2.67% and the NEUTROPHIL [3] was 13.33%. The “NUCLEATED RED BLOOD CELLS” value [3] was 0.33 /100WBC, the “PLATELET COUNT” value [3] was 1448 x10E3/uL and the “ALANINE AMINOTRANSFERASE” value [3] was 51.33 u/L. For the same compound, the ALBUMIN [3] was 4.17 G/DL, the “ALKALINE PHOSPHATASE” value [3] was 336.67 u/L and the “ASPARTATE AMINOTRANSFERASE” value [3] was 71.67 u/L. The “BLOOD UREA NITROGEN” value [3] was 15 mg/dL, the “CARBON DIOXIDE” value [3] was 24.33 mmol/L and the CHLORIDE [3] was 101.67 MEQ/L. The CHOLESTEROL [3] was 85.67 mg/dL, the “CREATINE PHOSPHOKINASE” value [3] was 168.33 u/L and the CREATININE [3] was 0.14 mg/dL. The GLUCOSE [3] was 167.33 mg/dL, the “LACTATE DEHYDROGENASE” value [3] was 73.67 u/L and the LIPASE [3] was 9.67 u/L. It also gave a PHOSPHORUS [3] of 13.13 mg/dL, a POTASSIUM [3] of 6.68 MEQ/L and an SODIUM [3] of 144.33 MEQ/L. For the same compound, the “TOTAL BILIRUBIN” value [3] was 0.2 mg/dL, the “TOTAL PROTEIN” value [3] was 5.6 G/DL and the “URIC ACID” value [3] was 1.77 mg/dL. The “ABSOLUTE BASOPHIL” value [4] was 0 CELLS/uL, the “ABSOLUTE EOSINOPHIL” value [4] was 0 CELLS/uL and the “ABSOLUTE LYMPHOCYTE” value [4] was 14413.67 CELLS/uL. For the same compound, the “ABSOLUTE MONOCYTE” value [4] was 41.67 CELLS/uL, the “ABSOLUTE SEGMENTED NEUTROPHIL” value [4] was 1278 CELLS/uL and the BASOPHIL [4] was 0%. For the same compound, the EOSINOPHIL [4] was 0%, the “ERYTHROCYTE COUNT” value [4] was 5.45 x10E6/uL and the HEMATOCRIT [4] was 34.03%. The HEMOGLOBIN [4] was 13.93 G/DL, the “LEUKOCYTE COUNT” value [4] was 15.73 x10E3/uL and the LYMPHOCYTE [4] was 92%. For the same compound, the “MEAN CORPUSCULAR HEMOGLOBIN” value [4] was 25.57 pg, the “MEAN CORPUSCULAR HEMOGLOBIN CONCENTRATION” value [4] was 40.93 G/DL and the “MEAN CORPUSCULAR VOLUME” value [4] was 62.5 fL. For the same compound, the MONOCYTE [4] was 0.33%, the NEUTROPHIL [4] was 7.67% and the “NUCLEATED RED BLOOD CELLS” value [4] was 0 /100WBC. For the same compound, the “PLATELET COUNT” value [4] was 1355 x10E3/uL, the “ALANINE AMINOTRANSFERASE” value [4] was 45.67 u/L and the ALBUMIN [4] was 4.07 G/DL. For the same compound, the “ALKALINE PHOSPHATASE” value [4] was 365.33 u/L, the “ASPARTATE AMINOTRANSFERASE” value [4] was 71.33 u/L and the “BLOOD UREA NITROGEN” value [4] was 16 mg/dL. The “CARBON DIOXIDE” value [4] was 25 mmol/L, the CHLORIDE [4] was 103.33 MEQ/L and the CHOLESTEROL [4] was 77 mg/dL. The “CREATINE PHOSPHOKINASE” value [4] was 183.67 u/L, the CREATININE [4] was 0.19 mg/dL and the GLUCOSE [4] was 155.67 mg/dL. For the same compound, the “LACTATE DEHYDROGENASE” value [4] was 161.33 u/L, the LIPASE [4] was 9.67 u/L and the PHOSPHORUS [4] was 12.93 mg/dL. For the same compound, the POTASSIUM [4] was 6.66 MEQ/L, the SODIUM [4] was 145.6 MEQ/L and the “TOTAL BILIRUBIN” value [4] was 0.17 mg/dL. For the same compound, the “TOTAL PROTEIN” value [4] was 5.8 G/DL and the “URIC ACID” value [4] was 1.4 mg/dL.
